{"source": "patent US5134150A", "about": "“Inhibition of the 5-lipoxygenase pathway” (priority 1989, dated 1992)", "key": {"[1]": {"system": "LTB4 synthesis by peritoneal exudate cells", "assay": "Ex vivo production of LTB4 from peritoneal exudate cells of drug-treated mice", "assay_type": "in vivo, mouse", "settings": "for inhibition at 100 mg/kg: Mus musculus, po, 100 mg/kg p.o.", "from_the_text": "In the following Examples where mice were used, they were male Balb/c mice (20-28 g), and where rats were used, they were male Lewis rats (180-210 g). All mice and rats were obtained from Charles River Breeding Laboratories, Kingston, N.Y. Within a single experiment, mice and rats were sex and age matched. Auranofin, phenidone, indomethacin, naproxen, and ibuprofen were each used as the free base. The compounds of Formula (I) were used either as the free base or in the appropriate salt form. Levamisole was used as the hydrochloride salt. […] Nordihydroguaiaretic acid (NDGA) was solubilized in dimethylacetamide and diluted with olive oil for subcutaneous administration. Carrageenan-induced peritoneal exudate cells from normal or drug-treated mice were washed and suspended in 2.2 ml of phosphate buffered saline. […] The cell preparation was centrifuged at 1500 rpm for 10 min and the supernatant was extracted using a C-18 silica column. […] A tetrahydrofuran, methanol, water, acetic acid (25:30:45: 0.1) solvent system, adjusted to pH 5.5 with ammonium hydroxide, was used at a flow rate of 0.7 ml/min. Cell derived LTB4 was quantified utilizing standard curves constructed with known amounts of synthetic LTB4."}, "[2]": {"system": "LTC4 production by human monocytes", "assay": "LTC4 production by human monocytes", "assay_type": "cell-based", "settings": "Monocyte; A23187-stimulated human monocytes", "experimental": "The compounds of Formula (I) were evaluated for their ability to inhibit the production of LTC4 by human monocytes according to the following assay. Human monocytes were prepared from whole blood supplied by the American Red Cross. The blood was fractinated by a two-step procedure employing sedimentation on Ficoll followed by sedimentation on Percoll. […] Non-adherent cells were removed by washing. […] When drugs were evaluated, they were added to the cells 30 minutes prior to the A23187. Supernatants were collected, […] by centrifugation and stored frozed at -20° C. until assay. The LTC4 content was determined by using a New England Nuclear Leukotriene C-4 (^3 H) RIA Kit as per instructions."}, "[3]": {"molecular_target": "T1, 5-Lipoxygenase (Rattus norvegicus, UniProt P12527)", "T1 construct": "The activities of these enzymes in extracts of RBL-1 cells were assayed; host or cells: RBL-1", "T1 sequence (P12527 1-673)": "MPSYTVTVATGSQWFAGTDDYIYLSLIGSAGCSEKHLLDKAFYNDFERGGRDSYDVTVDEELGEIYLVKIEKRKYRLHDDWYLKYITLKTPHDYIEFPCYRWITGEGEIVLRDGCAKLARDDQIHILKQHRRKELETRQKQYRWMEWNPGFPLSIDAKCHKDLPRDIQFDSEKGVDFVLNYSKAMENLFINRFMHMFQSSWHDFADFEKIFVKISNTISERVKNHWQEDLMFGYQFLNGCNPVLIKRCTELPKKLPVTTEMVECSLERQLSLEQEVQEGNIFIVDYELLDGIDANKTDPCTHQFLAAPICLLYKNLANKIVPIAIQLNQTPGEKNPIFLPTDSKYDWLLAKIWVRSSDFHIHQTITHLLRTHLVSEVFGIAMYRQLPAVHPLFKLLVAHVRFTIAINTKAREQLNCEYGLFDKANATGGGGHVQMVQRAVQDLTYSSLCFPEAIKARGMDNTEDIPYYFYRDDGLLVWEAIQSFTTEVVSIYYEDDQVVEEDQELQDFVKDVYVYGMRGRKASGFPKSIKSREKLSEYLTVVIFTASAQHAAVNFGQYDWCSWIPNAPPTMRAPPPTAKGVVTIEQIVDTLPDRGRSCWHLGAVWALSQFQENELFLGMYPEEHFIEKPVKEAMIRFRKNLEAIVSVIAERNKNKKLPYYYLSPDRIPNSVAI", "assay": "5-Lipoxygenase activity (5-HETE) in RBL-1 cell extracts, 10,000 x g supernatant", "assay_type": "biochemical", "settings": "Table 8", "method": "For in vitro experiments, compounds were dissolved at appropriate concentrations in ethanol or DMSO (dimethylsulfoxide) (final concentration≤1.0%) and then diluted to final concentrations using the buffers indicated in the text.\nRBL-1 cells were obtained from the American Type Culture Collection (#CRL 1378) and were grown at 37° C. (5% CO2 in air) in spinner culture in MEM supplemented with 10% heat inactivated fetal calf serum. Harvested cells were washed with 50 mM sodium phosphate buffer, pH 7.0, containing 1 mM EDTA and 0.1% gelatin, resuspended in fresh buffer (5×10^7 cells/ml) and disrupted by nitrogen cavitation using the Parr bomb at 750 psi for 10 min. The broken cell extract was then centrifuged at 10,000× g for 20 minutes (min) and the supernatant centrifuged at 100,000 xIg for 60 min. Aliquots (0.25 mls) of the supernatant were preincubated with or without drugs for 10 min, after which 10 μl CaCl2 (50 mM) was added and the reaction was initiated with 2.5 μl of 2.5 mM arachidonic acid-1-^14 C (final concentration was 25 μM; specific activity 20,000 dpm/nmole). After incubation for 3 min at 37° C., the reaction was terminated by addition of 2 volumes (0.5 ml) ice cold acetone and the sample was allowed to deproteinize on ice for 10 min prior to centrifugation at 1,000× g for 10 min. […] Arachidonic acid, 5-HETE, LTB4 and PGD2 were quantified with a Berthold LB 2832 autoscanner."}}}
{"smiles": "Fc1ccc(-c2nc3n(c2-c2ccncc2)CCS3)cc1", "note": "[Compound 1]", "values": [{"measurement": "inhibition at 100 mg/kg", "setting": "[1]; Experiment 1", "result": 90, "unit": "%"}, {"measurement": "inhibition at 100 mg/kg", "setting": "[1]; Experiment 2", "result": 23, "unit": "%"}, {"measurement": "inhibition at 100 mg/kg", "setting": "[1]; Experiment 3", "result": 100, "unit": "%"}, {"measurement": "LTB4 production ex vivo, result in words", "setting": "[1]; mouse, in vivo", "result": "Impairment of LTB4 production"}, {"measurement": "IC50", "setting": "[2]", "result": 1800, "unit": "nM"}]}
{"smiles": "COc1ccc2c(c1)c(CC(=O)O)c(C)n2C(=O)c1ccc(Cl)cc1", "note": "[Indomethacin]", "values": [{"measurement": "IC50 5-Lipoxygenase", "setting": "[3]", "result": "Inactive @ 30"}]}
